How the values were obtained:
[1] = Particle size analysis of dry-milled products (laser diffraction, Shimadzu SALD-2300); format: physicochemical
Procedure: Milling was performed for Examples 1a to 1c using an air jet mill (Equipment code: CP-AJM-01; Promas engineers) with the following parameters: Micronisation was repeated in all examples by performing the air jet milling for a second time using the same parameters. This allowed the particle size D90 to be reduced to less than 10 μm. [table] Four drops of Tween 20 were added to 25 mL of water and the mixture was sonicated for 3 minutes to form the dispersant solution. 0.05 g of milled material was transferred into a 250 mL glass beaker. 25 mL of the dispersant solution (Tween 20/water mixture) was added to the beaker with continuous swirling for 2 to 3 minutes. The suspension was transferred into the measuring unit and the particle size distribution measurements were conducted in triplicate.

[2] = Single dose oral pharmacokinetic studies in rabbits; format: in vivo, male New Zealand White rabbits; details: for Plasma concentration, mean: 90 mg/kg b.w. oral; for AUCextrap / AUC(0-inf) / AUC(0-t) / Cmax / MRT last / Tmax / half-life: 90 mg/kg b.w. oral single dose; for AUC(0-inf) / AUC(0-t) / Cmax / MRT last / Tmax / half-life: male, New Zealand White, plasma, po, 90 mg/kg
Procedure: The studies detailed below (and referred to as Examples 2 to 8) were conducted to provide comparative single dose oral pharmacokinetics data for Compound 1, as well as sodium and potassium salts of that compound, using non-coated and enteric-coated capsules in male New Zealand White rabbits.
Compound 1 was made using the process described in WO 2011/004162 and milled as described for Example 1c. The non-coated or enteric coated gelatin capsules were individually filled with 180 mg of dry-milled Compound 1 together with accompanying excipients as indicated. Both capsule types were filled with Compound 1 together with 1.8 mg of sodium docusate, 0.18 mg of PVP K30 and 9 mg of mannitol.
Similarly, Compound 2, non-coated or enteric coated gelatin capsules were individually filled with 180 mg of dry-milled Compound 2 (as obtained in Example 1f) together with 1.8 mg of sodium docusate, 0.18 mg of PVP K30 and 9 mg of mannitol.
For Compound 3, non-coated or enteric coated gelatin capsules were individually filled with 90 mg of dry-milled Compound 3 (as obtained in Example 1i) together with 0.90 mg of sodium docusate, 0.09 mg of PVP K30 and 4.50 mg of mannitol.
40 mL of the 2% w/v methyl cellulose solution was added to a 250 mL conical flask together with 10 g of 2 mm glass beads, and vigorously stirred. Compound 1 (720 mg) was slowly added to the solution and the mixture was with continuously stirred for 1 h. The homogenate was transferred to separate flask and its pH recorded. The suspension formulation was prepared before administration to the animals.
Adult healthy male New Zealand white rabbits aged approximately 2 to 3 months old were used for experimentation after 7 days of acclimatization.
To dose the filled capsules, a soft plastic dosing tube was used. The filled capsule was inserted into the dosing tube so that the short end of the capsule protrudes slightly from the tip of the tube. The tip of the capsule was dipped in mineral oil to aid swallowing.
To dose the suspension, an infant feeding tube was used. The feeding tube was inserted through the mouth of the rabbit to the oesophagus and the stomach, and ascertained that it has not been placed in the trachea before dosing to the animals. The suspension of the Compound 1 was administered through the feeding tube. After the administration of the suspension, drinking water of approximately 2.0-2.5 mL was administered to flush out the contents in the feeding tube.
The animals were restrained in a rabbit restrainer and blood samples (400-500 μL/time point) were collected via the central ear artery at 0.16, 0.25, 0.50, 1.0, 2.0, 4.0, 6.0, 8.0, 24.0, 48.0 and 72 hours post-dosing. Collected blood specimens were centrifuged at 4000 or 6000 rpm, 4° C. for 10 minutes and plasma samples were separated and stored at −80° C. until analysis.
Concentrations of the analyte of Compound 1 in New Zealand white rabbits was determined using an API 3200 Q-trap LC-MS/MS system.
Chromatographic separation was achieved on Zorbax C18, 50×4.6 mm, 5 μm column with methanol-0.1% formic acid as mobile phase with gradient elution. The flow rate was set at 1.0 mL min^−1. Detection was accomplished by a triple-quadrupole tandem mass spectrometer in multiple-reaction monitoring (MRM) scanning via electrospray ionization source, applied in the positive mode. The optimised mass transition ion-pairs for quantitation were m/z 379.999→125.000 for the compound 1 and m/z 376.165→165.00 for the ISD (Haloperidol). Calibration plots were linear over the range of 11.062 to 20594.820 ng/mL.
The data of plasma concentration to respective time points for the analyte Compound 1 were used for the pharmacokinetic analysis. Pharmacokinetic analysis was performed using non-compartmental analysis (NCA) module of Phoenix WinNonlin 6.3 software to determine the following pharmacokinetic parameters: • Cmax • Tmax • AUC0-t • AUC0-∞ • T1/2 • MRT […]

[3] = after 1st milling (air jet mill)
[4] = after 2nd milling (air jet mill)
[5] = rabbit, enteric coated capsule, rabbit plasma (Examples 5, 6, 7)
[6] = rabbit, non-coated capsule, rabbit plasma (Examples 2, 3, 4)

In the case of O=C(Nc1nc(=O)n(Cc2ccc(Cl)cc2)s1)c1ccc(Cl)cc1.[K] [Compound 3, 4-chloro-N-[2-[(4-chlorophenyl)methyl]-3-oxo-1,2,4-thiadiazol-5-yl]benzamide potassium salt], the “Particle size distribution D10” value [1, 3] is reported as 0.382 μm, the “Particle size distribution D50” value [1, 3] is reported as 3.64 μm and the “Particle size distribution D90” value [1, 3] is reported as 26.2 μm. The “Particle size distribution D100” value [1, 3] was 584 μm, the “Particle size distribution D10” value [1, 4] was 0.289 μm and the “Particle size distribution D50” value [1, 4] was 1.57 μm. For the same compound, the “Particle size distribution D90” value [1, 4] was 11.7 μm, the “Particle size distribution D100” value [1, 4] was 35.3 μm and the “Particle size distribution D10” value ([1]; before milling) was 0.876 μm. The “Particle size distribution D50” value ([1]; before milling) was 13.4 μm, the “Particle size distribution D90” value ([1]; before milling) was 205 μm and the “Particle size distribution D100” value ([1]; before milling) was 665 μm. The “Plasma concentration, mean” value ([2]; 0.00 h, enteric coated capsule, rabbit) was 0.000 ng/mL, the “Plasma concentration, mean” value ([2]; 0.00 h, non-coated capsule, rabbit) was 0.000 ng/mL and the “Plasma concentration, mean” value ([2]; 0.16 h, enteric coated capsule, rabbit) was 0.000 ng/mL. The “Plasma concentration, mean” value ([2]; 0.16 h, non-coated capsule, rabbit) was 169.000 ng/mL, the “Plasma concentration, mean” value ([2]; 0.25 h, enteric coated capsule, rabbit) was 0.000 ng/mL and the “Plasma concentration, mean” value ([2]; 0.25 h, non-coated capsule, rabbit) was 255.336 ng/mL. For the same compound, the “Plasma concentration, mean” value ([2]; 0.50 h, enteric coated capsule, rabbit) was 0.000 ng/mL, the “Plasma concentration, mean” value ([2]; 0.50 h, non-coated capsule, rabbit) was 457.796 ng/mL and the “Plasma concentration, mean” value ([2]; 1.00 h, enteric coated capsule, rabbit) was 4.721 ng/mL. The “Plasma concentration, mean” value ([2]; 1.00 h, non-coated capsule, rabbit) was 2349.624 ng/mL, the “Plasma concentration, mean” value ([2]; 2.00 h, enteric coated capsule, rabbit) was 93.881 ng/mL and the “Plasma concentration, mean” value ([2]; 2.00 h, non-coated capsule, rabbit) was 4456.537 ng/mL. For the same compound, the “Plasma concentration, mean” value ([2]; 4.00 h, enteric coated capsule, rabbit) was 2558.779 ng/mL, the “Plasma concentration, mean” value ([2]; 4.00 h, non-coated capsule, rabbit) was 16997.495 ng/mL and the “Plasma concentration, mean” value ([2]; 6.00 h, enteric coated capsule, rabbit) was 7906.592 ng/mL. The “Plasma concentration, mean” value ([2]; 6.00 h, non-coated capsule, rabbit) was 21418.736 ng/mL, the “Plasma concentration, mean” value ([2]; 8.00 h, enteric coated capsule, rabbit) was 16147.149 ng/mL and the “Plasma concentration, mean” value ([2]; 8.00 h, non-coated capsule, rabbit) was 39754.464 ng/mL. The “Plasma concentration, mean” value ([2]; 24.00 h, enteric coated capsule, rabbit) was 66084.614 ng/mL, the “Plasma concentration, mean” value ([2]; 24.00 h, non-coated capsule, rabbit) was 75168.570 ng/mL and the “Plasma concentration, mean” value ([2]; 48.00 h, enteric coated capsule, rabbit) was 79465.599 ng/mL. The “Plasma concentration, mean” value ([2]; 48.00 h, non-coated capsule, rabbit) was 77379.051 ng/mL, the “Plasma concentration, mean” value ([2]; 72.00 h, enteric coated capsule, rabbit) was 49785.289 ng/mL and the “Plasma concentration, mean” value ([2]; 72.00 h, non-coated capsule, rabbit) was 60164.693 ng/mL. The “improvement in systemic exposure compared with the milled free base active ingredient” value ([2]; dry milled, capsules, 90 mg/kg oral, rabbit) was “more modest improvement”, the AUCextrap ([2]; enteric coated capsule, rabbit plasma (Examples 5, 6, 7)) was 69.48 ± 19.80% and the AUC(0-inf) [2, 5] was 18600 ± 13800 µg·h/mL. It also gave an AUC(0-t) [2, 5] of 3990 ± 43.3 µg·h/mL, a Cmax [2, 5] of 79500 ± 5430 ng/mL and an MRT last [2, 5] of 42 ± 0.696 h. The Tmax [2, 5] was 48 h, the half-life [2, 5] was 189 ± 158 h and the AUC(0-inf) [2, 6] was 9370 ± 3380 µg·h/mL. For the same compound, the AUC(0-t) [2, 6] was 4530 ± 589 µg·h/mL, the Cmax [2, 6] was 81900 ± 10400 ng/mL and the MRT last [2, 6] was 39.6 ± 3.88 h. It also gave a Tmax [2, 6] of 40 ± 13.9 h, a half-life [2, 6] of 71.6 ± 22.6 h and an AUCextrap ([2]; non-coated capsule, rabbit plasma (Examples 2, 3, 4)) of 52.23 ± 10.63%.

— patent US12162850B2, “Formulations” (Betagenon AB, priority 2019, dated 2024)
